Source: ChEMBL document CHEMBL1201862, “PubChem BioAssay data set” (2004)
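How tested: cells in 96-well plates exposed to compound for 48 hours at five concentrations. GI50 is the concentration that inhibits growth by half.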 The source made the active and inactive calls. No stated cut-off is given here; in the data, active = GI50 up to about 1.1 µM and inactive = higher.

Experiments:
Experiment in all cases: NCI anticancer screen, dose series, 48 h
[1] = test system: CAKI-1
[2] = test system: OVCAR-8
[3] = test system: CCRF-CEM
[4] = test system: DU-145
[5] = test system: IGROV-1
[6] = test system: Malme-3M
[7] = test system: SNB-19
[8] = test system: SK-MEL-2
[9] = test system: NCI-H23
[10] = test system: OVCAR-4
[11] = test system: LOX IMVI
[12] = test system: Hs-578T
[13] = test system: SN12C
[14] = test system: KM12
[15] = test system: MDA-MB-231
[16] = test system: HOP-92
[17] = test system: COLO 205
[18] = test system: UO-31
[19] = test system: A549
[20] = test system: UACC-62

Measured: GI50

COC(=O)c1cc2c(cc1CC1Cc3cc4c(cc3C1)CCC4)CCC2
inactive: [1] 90.6 µM | [2] > 100 µM | [3] 16.9 µM | [4] 84.7 µM | [5] 53 µM | [6] 86.5 µM | [7] 93.3 µM | [8] 24.3 µM | [9] 44.4 µM | [10] 84.7 µM | [11] 24.3 µM | [12] 66.8 µM | [13] 79.1 µM | [14] 68.7 µM | [15] 77.3 µM | [16] 27 µM | [17] 40.5 µM | [18] 32 µM | [19] 60.4 µM

COC1/C=C\OC2(C)Oc3c(C)c(O)c4c(O)c(c(/C=N\OCCCc5ccccc5)c(O)c4c3C2=O)NC(=O)/C(C)=C\C=C/C(C)C(O)C(C)C(O)C(C)C(OC(C)=O)C1C (stereo unspecified)
inactive: [1] 4.32 µM | [2] 4.9 µM | [3] 3.08 µM | [4] 4.71 µM | [5] 2.39 µM | [6] 3.54 µM | [7] 6.32 µM | [8] 2.18 µM | [20] 2.79 µM | [9] 3.21 µM | [10] 3.08 µM | [11] 3.33 µM | [12] 6.31 µM | [13] 1.81 µM | [14] 4.47 µM | [15] 2.25 µM | [16] 2.15 µM | [17] 1.78 µM | [19] 3.83 µM

Br/C(=N\N=c1/nn[nH][nH]1)c1ccncc1
inactive: [1] > 100 µM | [2] > 100 µM | [3] > 100 µM | [4] > 100 µM | [5] > 100 µM | [6] > 100 µM | [7] > 100 µM | [8] > 100 µM | [20] > 100 µM | [9] > 100 µM | [10] > 100 µM | [11] > 100 µM | [12] > 100 µM | [13] > 100 µM | [14] > 100 µM | [15] > 100 µM | [16] > 100 µM | [17] > 100 µM | [19] > 100 µM

NCCNCC(O)CO (stereo unspecified)
inactive: [1] > 100 µM | [2] > 100 µM | [4] > 100 µM | [5] > 100 µM | [6] > 100 µM | [7] > 100 µM | [8] > 100 µM | [20] > 100 µM | [9] > 100 µM | [10] > 100 µM | [11] > 100 µM | [12] > 100 µM | [13] > 100 µM | [14] > 100 µM | [15] > 100 µM | [16] > 100 µM | [17] > 100 µM | [18] > 100 µM | [19] > 100 µM

c1ccc2c(c1)nc1n2CCCn2ccnc2-1
inactive: [2] 67.5 µM | [4] > 100 µM | [5] > 100 µM | [6] > 100 µM | [7] > 100 µM | [8] > 100 µM | [20] > 100 µM | [9] > 100 µM | [10] > 100 µM | [11] > 100 µM | [12] > 100 µM | [13] > 100 µM | [14] > 100 µM | [15] > 100 µM | [16] > 100 µM | [17] > 100 µM | [18] 99.3 µM | [19] > 100 µM

COc1cc(CSc2ccc(O)cc2)cc(O)c1O
inactive: [1] 28 µM | [2] 26.2 µM | [3] 8.36 µM | [4] 44.5 µM | [5] 35.3 µM | [6] 37.6 µM | [7] 37 µM | [8] 24.5 µM | [20] 22.8 µM | [9] 41.8 µM | [11] 36.2 µM | [12] 42.1 µM | [13] 25.2 µM | [14] 25.9 µM | [15] 25.4 µM | [16] 22.7 µM | [17] 23.3 µM | [18] 27.2 µM | [19] 46.7 µM

Cc1nc2ccc([N+](=O)[O-])cc2c(=O)n1C(=S)Nc1cccc(Cl)c1
inactive: [1] 18.1 µM | [3] 12.9 µM | [4] 28.4 µM | [6] 21.1 µM | [7] 27.8 µM | [8] 6.18 µM | [20] 12.5 µM | [9] 13.8 µM | [10] 19.5 µM | [11] 12.9 µM | [12] 21.5 µM | [13] 20 µM | [14] 12.9 µM | [15] 15.5 µM | [16] 3.5 µM | [17] 14 µM | [18] 5.24 µM | [19] 23.2 µM
